From PubChem BioAssay (NCI)
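Tested at 5 concentrations; 48 h exposure; 96-well plates; endpoints linearly interpolated, else capped at highest concentration. GI50 = concentration required for 50% inhibition of growth. TGI: concentration producing complete growth inhibition.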

Experiments:
Assay in all cases: growth of human tumour cells (NCI), 48 h
[1] = test system: SN12C renal
[2] = test system: K-562 leukemia
[3] = test system: EKVX NSCLC
[4] = test system: HL-60(TB) leukemia
[5] = test system: IGROV1 ovarian
[6] = test system: NCI/ADR-RES ovarian
[7] = test system: ACHN renal
[8] = test system: NCI-H226 lung
[9] = test system: A498 renal
[10] = test system: MDA-MB-435
[11] = test system: CAKI-1 renal
[12] = test system: SK-MEL-5 melanoma
[13] = test system: LOX IMVI melanoma
[14] = test system: SF-268 CNS
[15] = test system: OVCAR-5 ovarian
[16] = test system: BT-549 breast
[17] = test system: RXF 393 renal
[18] = test system: MDA-MB-231 breast
[19] = test system: HCT-15 colon
[20] = test system: CCRF-CEM leukemia
[21] = test system: SNB-75 CNS
[22] = test system: SR leukemia
[23] = test system: OVCAR-8 ovarian
[24] = test system: HT29 colon
[25] = test system: KM12 colon
[26] = test system: NCI-H460 lung
[27] = test system: 786-0 renal
[28] = test system: UO-31 renal
[29] = test system: SF-295 CNS
[30] = test system: SW-620 colon
[31] = test system: HCC-2998 colon
[32] = test system: PC-3 prostate
[33] = test system: HOP-92 NSCLC
[34] = test system: U251 CNS
[35] = test system: SK-MEL-28 melanoma
[36] = test system: UACC-62 melanoma
[37] = test system: DU-145 prostate
[38] = test system: MOLT-4 leukemia
[39] = test system: SNB-19 CNS
[40] = test system: NCI-H522 lung
[41] = test system: MALME-3M melanoma
[42] = test system: OVCAR-4 ovarian
[43] = test system: M14 melanoma
[44] = test system: UACC-257 melanoma
[45] = test system: A549 NSCLC
[46] = test system: TK-10 renal
[47] = test system: HOP-62 NSCLC
[48] = test system: HS 578T breast
[49] = test system: MCF7 breast
[50] = test system: SK-OV-3 ovarian
[51] = test system: OVCAR-3 ovarian
[52] = test system: SF-539 CNS
[53] = test system: T-47D breast
[54] = test system: NCI-H23 lung
[55] = test system: COLO 205 colon
[56] = test system: RPMI-8226 leukemia

O=C1C(N2CC2)=C(N2CC2)C(=O)C(N2CC2)=C1N1CC1
GI50 [1]: < 22.8 nM
TGI [1]: 1450 nM
GI50 [2]: 785 nM
TGI [2]: > 100000 nM
GI50 [3]: 1700 nM
TGI [3]: 6880 nM
GI50 [4]: 201 nM
TGI [4]: 8640 nM
GI50 [5]: 312 nM
TGI [5]: 2380 nM
TGI [6]: 1300 nM
GI50 [7]: < 17.9 nM
TGI [7]: 351 nM
GI50 [8]: 157 nM
TGI [8]: 714 nM
GI50 [9]: 348 nM
TGI [9]: 1190 nM
GI50 [10]: 706 nM
TGI [10]: 2300 nM
GI50 [11]: 37.1 nM
TGI [11]: 2180 nM
GI50 [12]: 144 nM
TGI [12]: 359 nM
GI50 [13]: < 20.9 nM
TGI [13]: 307 nM
GI50 [14]: 265 nM
TGI [14]: 5310 nM
GI50 [15]: 2290 nM
TGI [15]: 6920 nM
GI50 [16]: 318 nM
TGI [16]: 1530 nM
GI50 [17]: 218 nM
TGI [17]: 1010 nM
GI50 [18]: 14900 nM
TGI [18]: 56100 nM
GI50 [19]: 150 nM
TGI [19]: 901 nM
GI50 [20]: 1820 nM
TGI [20]: > 100000 nM
GI50 [21]: 158 nM
TGI [21]: 1110 nM
GI50 [22]: 34.5 nM
TGI [22]: > 100000 nM
GI50 [23]: 344 nM
TGI [23]: 6990 nM
GI50 [24]: 181 nM
TGI [24]: 15100 nM
GI50 [25]: 696 nM
TGI [25]: 2720 nM
TGI [26]: 178 nM
GI50 [27]: < 28.5 nM
TGI [27]: 984 nM
GI50 [28]: < 30.4 nM
TGI [28]: 606 nM
GI50 [29]: < 21.1 nM
TGI [29]: 1000 nM
GI50 [30]: 419 nM
TGI [30]: 6090 nM
GI50 [31]: 168 nM
TGI [31]: 569 nM
GI50 [32]: 863 nM
TGI [32]: 21100 nM
GI50 [33]: 2990 nM
TGI [33]: 29700 nM
GI50 [34]: 275 nM
TGI [34]: 3180 nM
GI50 [35]: 838 nM
TGI [35]: 2320 nM
GI50 [36]: 101 nM
TGI [36]: 1130 nM
TGI [37]: 487 nM
GI50 [38]: 765 nM
TGI [38]: > 100000 nM
GI50 [39]: 140 nM
TGI [39]: 4320 nM
GI50 [40]: 432 nM
TGI [40]: 2210 nM
GI50 [41]: 225 nM
TGI [41]: 1310 nM
GI50 [42]: 2060 nM
TGI [42]: 7650 nM
GI50 [43]: < 21.1 nM
TGI [43]: 199 nM
GI50 [44]: 109 nM
TGI [44]: 749 nM
GI50 [45]: 59 nM
TGI [45]: 428 nM
GI50 [46]: 2590 nM
TGI [46]: > 100000 nM
GI50 [47]: 82.2 nM
TGI [47]: 1050 nM
GI50 [48]: 1280 nM
TGI [48]: 6210 nM
GI50 [49]: < 21.8 nM
TGI [49]: 1500 nM
GI50 [50]: 123 nM
TGI [50]: 891 nM
GI50 [51]: 1040 nM
TGI [51]: 3460 nM
GI50 [52]: 104 nM
TGI [52]: 1240 nM
GI50 [53]: 659 nM
TGI [53]: 23800 nM
GI50 [54]: < 23.3 nM
TGI [54]: 245 nM
GI50 [55]: 163 nM
TGI [55]: 404 nM
GI50 [56]: 2740 nM
TGI [56]: 17200 nM
